Results taken from patent US8785452B2, “Anti-infective compounds” (priority 2008, dated 2014).
Where two headings read alike, the source gives them in different places.

How the values were obtained:
[1] = test system: M. tuberculosis H37Rv-GFP; assay: microbe, parasite or virus in culture; type: cell-based, Mycobacterium tuberculosis; details: Mycobacterium tuberculosis, H37RV, Macrophage
[2] = test system: Raw264.7 cells; details: mouse, 5 days; for Primary QIM CellNb: 20 μM
[3] = test system: Raw264.7 cells; assay: Cell number (CellNb) from image analysis of the phenotypic cell-based assay; details: for Primary QIM CellNb: primary screen, 20 μM; for QIM Confirm CellNb 0.2 uM / QIM Confirm CellNb 2 uM / QIM Confirm CellNb 20 uM: confirmation
[4] = confirmation, 20 uM, read-out: QIM Confirm % Inhibition 20 uM
[5] = primary screen, 20 μM, read-out: Primary QIM % Inhibition

Compound | inhibition at 20 µM [1, 4] | inhibition at 20 µM [1, 5] | Primary QIM CellNb [2] | Primary QIM CellNb [3] | QIM Confirm CellNb 0.2 uM [3] | QIM Confirm CellNb 2 uM [2] | QIM Confirm CellNb 2 uM [3] | QIM Confirm CellNb 0.2 uM ([2]; 0.2 uM) | QIM Confirm CellNb 20 uM [2] | QIM Confirm CellNb 20 uM [3]
O=C(N/N=C/c1cccc(Cl)c1Cl)c1ccncc1 [IPK 000 043 10] | 98.3% | 14.3% | 92.7 | 176.8 |  |  |  |  |  | 
COc1cc(Cl)cc(/C=N/NC(=O)c2ccccc2O)c1O [IPK 000 104 20] | 34.6% | 65.2% | −2.9 | 29.5 |  |  |  |  |  | 
O=C(Nc1nccs1)c1ccc(COc2ccc(Cl)cc2)o1 [IPK 000 124 54] | 75% | 75.5% | 16.4 | 503.3 |  |  |  |  |  | 
O=C(Nc1sc2c(c1C(=O)Nc1ccccc1)CCC2)c1ccccc1Cl [IPK 000 073 68] | 92.6% | 88.2% | 74.7 | 202.3 |  |  |  |  |  | 
Cc1ccc(NC(=O)c2c(NC(=O)c3ccccc3Cl)sc3c2CCC3)cc1 [IPK 000 073 69] | 32.3% | 87% | 14.0 | 246.5 |  |  |  |  |  | 
NNC(=O)c1ccc(COc2ccc(F)cc2)o1 [IPK 000 124 65] | 94.3% | 77.1% | 45.0 | 490.8 | 267.0 |  |  |  |  | 
O=C(N/N=C/c1ccc(Br)cc1)c1ccncc1 [IPK 000 041 51] | 94% | 89% | 102.9 | 351.3 |  |  |  |  |  | 
N=C1S/C(=C/c2ccc([N+](=O)[O-])cc2)C(=O)N1c1nccs1 [IPK 000 094 38] | 6% | 46% | 13.6 | 126.3 |  |  |  |  |  | 
O=C(N/N=C/c1ccc(O)c([N+](=O)[O-])c1)c1ccncc1 [IPK 000 043 11] | 104% | 104% | 99.5 | 366.0 |  |  |  |  |  | 
O=C(Nc1cc(Cl)cc(Cl)c1)c1cc([N+](=O)[O-])ccc1Cl [IPK 000 049 20] | 88.6% | 71.5% | 54.8 | 155.5 |  |  |  |  |  | 
CC/C(Cc1ccccc1)=N\NC(=O)c1ccncc1 [IPK 000 078 86] | 108% | 96.9% | 88.3 | 462.0 |  |  |  |  |  | 
Cc1cc(/C=C(/C#N)C(=O)Nc2cccc(Br)c2)c(C)n1-c1ccc(C(=O)O)cc1 [IPK 000 113 05] | 56.4% | 55.4% | 31.6 | 162.0 |  |  |  |  |  | 
O=[N+]([O-])c1ccc(O)c(/C=N/c2ccccc2O)c1 [IPK 000 044 20] | 30.7% | -67.5% | 6.3 | 135.0 |  |  |  |  |  | 
Oc1ccccc1/N=C/c1cc(Cl)cc(Cl)c1O [IPK 000 045 01] | 30.6% | -9.3% | 24.3 | 145.0 |  |  |  |  |  | 
COc1cc(Br)cc(/C=N/NC(=O)c2ccncc2)c1O [IPK 000 079 15] | 97.9% | 82.4% | 90.5 | 383.3 |  |  |  |  |  | 
C/C(=N\NC(=O)c1cccc(F)c1)c1ccc2ccccc2c1 [IPK 000 104 07] | 80.2% | 82.3% | 65.1 | 243.5 |  |  |  |  |  | 
N#Cc1cc(Br)c([N+](=O)[O-])cc1C#N [IPK 000 042 72] | 57.6% | 11.9% | −1.9 | 152.0 |  | 82.5 | 96.1 |  |  | 
O=C(N/N=C/c1ccc(Cl)cc1)c1ccncc1 [IPK 000 041 53] | 97% | 100% | 98.1 | 426.8 |  |  |  |  |  | 
NNC(=O)c1ccc(COc2cc(Cl)ccc2Cl)o1 [IPK 000 123 02] | 78.2% | 76.8% | 45.3 | 411.8 |  |  |  |  |  | 
Cc1cccc(/C=N/NC(=O)c2ccncc2)c1 [IPK 000 043 26] | 102% | 109% | 102.2 | 347.3 | 413.6 | 99.5 | 523.3 | 98.6 | 72.4 | 430.3
CCCCc1ccc(NC(=O)c2ccc([N+](=O)[O-])cc2Cl)cc1 [IPK 000 047 17] | 88.5% | 57.6% | 69.7 | 152.3 |  |  |  |  |  | 
O=S(=O)(Nc1nccs1)c1ccc(/N=C/c2ccccc2O)cc1 [IPK 000 079 88] | 28.1% | -69.2% | 7.5 | 181.8 |  |  |  |  |  | 

Compound | inhibition at 20 µM [1, 4] | inhibition at 20 µM [1, 5] | Primary QIM CellNb [2] | Primary QIM CellNb [3] | QIM Confirm CellNb 0.2 uM [3] | QIM Confirm CellNb 2 uM [2] | QIM Confirm CellNb 2 uM [3] | QIM Confirm CellNb 0.2 uM ([2]; 0.2 uM) | QIM Confirm CellNb 20 uM [2] | QIM Confirm CellNb 20 uM [3]
CCCC(=O)/N=C(\N)Nc1nc2ccccc2o1 [IPK 000 122 62] | 65.1% | 62.8% | 26.2 | 131.5 |  |  |  |  |  | 
COc1ccc(OC)c(/C=N/NC(=O)c2ccncc2)c1 [IPK 000 042 93] | 106% | 109% | 105.1 | 321.8 |  |  |  |  |  | 
CN1C/C(=C\c2ccccc2Br)C(=O)/C(=C/c2ccccc2Br)C1 [IPK 000 102 36] | 66.5% | 65.6% | 4.4 | 193.3 |  |  |  |  |  | 
O=C(Nc1cccnc1)c1ccc(COc2ccc3ccccc3c2)o1 [IPK 000 124 43] | 64.7% | 35.6% | 26.2 | 168.3 |  |  |  |  |  | 
O=C(NC12CC3CC(CC(C3)C1)C2)c1ccc([N+](=O)[O-])cc1 [IPK 000 113 77] | 74.3% | 60.9% | 48.4 | 319.8 |  |  |  |  |  | 
O=C(N/N=C/C=C/c1ccc([N+](=O)[O-])cc1)c1ccncc1 [IPK 000 043 30] | 102% | 107% | 100.8 | 305.0 |  |  |  |  |  | 
CC(=O)Oc1ccccc1C(=S)Nc1ccccc1 [IPK 000 042 77] | 48.9% | 105% | 7.7 | 367.0 |  |  |  |  |  | 
O=C(N/N=C/c1cccc(Br)c1)c1ccncc1 [IPK 000 043 09] | 102% | 95.8% | 100.5 | 258.5 |  |  |  |  |  | 
Cc1nc2c(o1)NC(N)=C(C#N)C2c1c[nH]nc1C (stereo not shown) [IPK 000 065 03] | 73.2% | 68.2% | 1.1 | 197.8 |  |  |  |  |  | 
O=C(N/N=C/c1cc([N+](=O)[O-])ccc1O)c1ccncc1 [IPK 000 042 98] | 105% | 102% | 95.3 | 350.0 |  |  |  |  |  | 
O=C(Nc1cccc(C(F)(F)F)c1)Nc1ccc(Cl)c(Cl)c1 [IPK 000 052 50] | 76.4% | 45% | 10.8 | 44.0 |  |  |  |  |  | 
CCOC(=O)/C=C/C(=O)NNC(=O)c1cccs1 [IPK 000 109 99] | 28.1% | 8.5% | 20.3 | 183.0 |  | 101.3 | 174.3 |  |  | 
CC(/C=N/NC(=O)c1cccc(F)c1)c1ccccc1 (stereo not shown) [IPK 000 104 13] | 89.6% | 68.8% | 25.2 | 115.8 |  |  |  |  |  | 
O=[N+]([O-])c1cc(Br)cc(/C=N/c2ccccc2O)c1O [IPK 000 080 69] | 16.5% | -42.5% | 37.6 | 123.5 |  |  |  |  |  | 
CCc1ccc(/C=N/NC(=O)c2ccncc2)cc1 [IPK 000 043 31] | 100% | 94.6% | 101.5 | 334.0 |  |  |  |  |  | 
Oc1c(Cl)cc(Cl)cc1C(=S)Nc1ccccc1 [IPK 000 042 78] | 91.7% | 73.9% | 33.0 | 194.5 |  |  |  |  |  | 
O=C(N/N=C\c1cc2c(s1)CCCCC2)c1ccncc1 [IPK 000 102 07] | 84.7% | 94.7% | 99.5 | 116.0 |  |  |  |  | 79.6 | 124.8
O=[N+]([O-])c1ccc(O)c(C2NN=C(c3ccccc3)S2)c1 (stereo not shown) [IPK 000 114 01] | -1.5% | 3.2% | 7.3 | 163.5 |  |  |  |  |  | 
C/C(=N\NC(N)=S)c1ccccc1O [IPK 000 080 38] | 3.4% | 21% | 32.1 | 307.5 |  |  |  |  |  | 
CC(NC(=O)c1ccc(C(C)(C)C)cc1)c1ccccc1 (stereo not shown) [IPK 000 067 61] | 68.5% | 84.3% | 28.2 | 182.0 |  |  |  |  |  | 
O=C(N/N=C/c1ccccc1Cl)c1ccncc1 [IPK 000 043 05] | 104% | 97.1% | 101.6 | 228.8 |  |  |  |  | 80.2 | 
O=C(NC1CCCCC1)c1ccc(COc2cc(Cl)ccc2Cl)o1 [IPK 000 123 90] | 87.7% | 73.1% | 26.7 | 205.0 |  |  |  |  |  | 
